Test results reported in patent US10183021B2, “sGC stimulators” (Ironwood Pharmaceuticals, Inc., priority 2013, dated 2019).
Read-outs that look alike come from different tables or passages of the source.

Target: soluble guanylate cyclase (sGC) (Homo sapiens (Human), UniProt Q02108+Q02153)
Experiment: sGC-HEK-cGMP assay with SNP incubation, LC/MS detection (Example 2A)
Assay type: cell-based
Conditions: HEK293 cells, 10 μM SNP, LC/MS detection; for Emax: 100% = BAY 41-2272 at 10 μM, read-out: HEK assay Emax - unconstrained (%)
Procedure: Human embryonic kidney cells (HEK293), endogenously expressing soluble guanylate cyclase (sGC), were used to evaluate the activity of test compounds. Compounds stimulating the sGC receptor should cause an increase in the intracellular concentration of cGMP. HEK 293 cells were seeded in Dulbecco's Modification of Eagle's Medium supplemented with fetal bovine serum (10% final) and L-glutamine (2 mM final) in a 200 L volume at a density of 1×10^5 cells/well in a poly-D-lysine coated 96 well flat bottom plate and grown overnight at 37° C. Medium was aspirated and cells were washed with 1× Hank's Buffered Saline Salt Solution (200 μL). Cells were then incubated for 15 minutes at 37° C. with 200 μL of a 0.5 mM 3-isobutyl-1-methylxanthine (IBMX) solution. Test article and sodium nitroprusside solutions (x μM concentration for test article solution and 10 μM concentration for SNP solution; wherein x is one of the following concentrations: 30 μM, 10 μM, 3 μM, 1 μM, 0.3 μM, 0.1 μM, 0.03 μM, 0.01 μM, 0.003 μM, 0.001 μM, 0.0003 μM or 0.0001 μM) were then added to the assay mixture (2 μL each) and the resulting mixture incubated at 37° C. for 10 minutes. After the 10 minute incubation, the assay mixture was aspirated and 0.1M HCl (200 μL) was added to the cells. The plate was incubated at 4° C. for 30 minutes in the 0.1M HCl to stop the reaction and lyse the cells. The plates were then centrifuged at 1,200 g for 5 minutes at room temperature. Supernatants were collected and transferred to a new flat bottom 96 well plate for analysis by HPLC-MS. Vehicle controls were carried out using DMSO (1%) solutions. A known sGC stimulator, BAY 41-2272, was used as the positive control. Samples were diluted with an equal volume of 1 M Ammonium Acetate (pH 7) to neutralize samples for better chromatography. A 2× cGMP standard solution was prepared in 0.1 M HCl and then diluted with an equal volume of 1 M Ammonium Acetate, with the following final concentrations in nM: 1024, 512, 256, 128, 64, 32, 16, 8, 4, 2, 1. cGMP concentrations in the test plates were determined from each sample using the LC/MS conditions shown in Table 2 below and the calculated cGMP standard curve. EC50 values were calculated from concentration-response curves generated with GraphPad Prism Software. Data were normalized to a high control using the following equation: 100*(Sample−Low Control)/(High Control−Low Control), where the low control is the average of 6 samples treated with 1% DMSO, and the high control is the average of 8-12 samples treated with 10 uM BAY 41-2272. Data were fit using a non-linear regression, sigmoidal dose response, 3 parameter fits.

[1] = top of curve not fitted to 100%, read-out: HEK assay EC50 - unconstrained

soluble guanylate cyclase (sGC), sequence (Q02153 whole entry): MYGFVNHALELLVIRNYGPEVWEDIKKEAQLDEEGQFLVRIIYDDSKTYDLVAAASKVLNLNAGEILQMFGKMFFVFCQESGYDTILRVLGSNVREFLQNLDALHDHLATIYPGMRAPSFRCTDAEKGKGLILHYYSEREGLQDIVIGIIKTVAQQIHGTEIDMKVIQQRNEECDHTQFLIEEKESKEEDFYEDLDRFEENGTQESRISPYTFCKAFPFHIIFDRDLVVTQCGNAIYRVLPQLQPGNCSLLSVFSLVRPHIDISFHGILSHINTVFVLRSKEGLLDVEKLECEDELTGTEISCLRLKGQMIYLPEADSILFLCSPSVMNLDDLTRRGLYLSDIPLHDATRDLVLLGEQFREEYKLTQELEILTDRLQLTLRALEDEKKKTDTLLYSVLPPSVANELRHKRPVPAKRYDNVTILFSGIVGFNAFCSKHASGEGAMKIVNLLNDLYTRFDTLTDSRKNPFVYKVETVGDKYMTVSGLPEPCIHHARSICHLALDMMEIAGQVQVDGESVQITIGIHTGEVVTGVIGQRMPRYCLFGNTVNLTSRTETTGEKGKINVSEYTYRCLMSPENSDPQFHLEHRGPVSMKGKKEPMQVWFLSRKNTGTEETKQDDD
soluble guanylate cyclase (sGC), sequence (Q02108 whole entry): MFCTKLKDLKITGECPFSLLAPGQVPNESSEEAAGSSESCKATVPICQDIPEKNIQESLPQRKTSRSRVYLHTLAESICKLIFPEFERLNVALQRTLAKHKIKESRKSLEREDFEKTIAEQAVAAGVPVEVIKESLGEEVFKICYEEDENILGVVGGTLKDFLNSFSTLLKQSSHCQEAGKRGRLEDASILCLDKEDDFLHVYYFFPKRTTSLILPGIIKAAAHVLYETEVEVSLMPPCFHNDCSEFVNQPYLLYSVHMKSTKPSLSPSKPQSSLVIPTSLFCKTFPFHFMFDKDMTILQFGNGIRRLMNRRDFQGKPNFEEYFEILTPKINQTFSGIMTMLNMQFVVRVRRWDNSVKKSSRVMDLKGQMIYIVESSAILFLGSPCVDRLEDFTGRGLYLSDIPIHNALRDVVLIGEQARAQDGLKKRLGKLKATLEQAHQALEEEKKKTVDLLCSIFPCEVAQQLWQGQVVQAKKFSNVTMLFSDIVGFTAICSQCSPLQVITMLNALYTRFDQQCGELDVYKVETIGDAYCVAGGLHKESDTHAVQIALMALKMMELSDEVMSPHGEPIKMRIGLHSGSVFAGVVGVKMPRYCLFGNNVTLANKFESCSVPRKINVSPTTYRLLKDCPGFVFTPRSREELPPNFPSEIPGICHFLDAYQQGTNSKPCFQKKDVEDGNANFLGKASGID

| Compound | Emax | EC50 [1] | EC50 (top of curve fitted to 100%, read-out: HEK assay EC50 - constrained) |
| --- | --- | --- | --- |
| NC1CCCN(c2nc(-c3cc(-c4ccon4)n(Cc4ccccc4F)n3)ncc2F)C1 (stereo not shown) [Compound I-37] | 60 to 80% | 1000 to 5000 nM |  |
| COC(=O)CC1CCN(c2nc(-c3cc(-c4ccon4)n(Cc4ccccc4F)n3)ncc2F)CC1 [Compound I-231] | 40 to 60% | > 10000 nM |  |
| O=C(O)[C@@H](Cc1ccc(O)cc1)Nc1nc(-c2cc(-c3ccon3)n(Cc3ccccc3F)n2)ncc1F [Compound I-165] |  |  | > 10000 nM |
| O=C(O)[C@H](Nc1nc(-c2cc(-c3ccon3)n(Cc3ccccc3F)n2)ncc1F)c1ccccc1 [Compound I-118] | 80 to 100% | 1000 to 5000 nM |  |
| COC(=O)N(C(=O)OC)c1nc(-c2cc(-c3ccon3)n(Cc3ccccc3F)n2)ncc1F [Compound I-52] | 60 to 80% | 1000 to 5000 nM |  |
| O=C(O)C1CCCCC1Nc1nc(-c2cc(-c3ccon3)n(Cc3ccccc3F)n2)ncc1F (stereo not shown) [Compound I-154] | 60 to 80% | 100 to 500 nM |  |
| CC(C)(C)OC(=O)N1CCC(Nc2nc(-c3cc(-c4ccon4)n(Cc4ccccc4F)n3)ncc2F)CC1 [Compound I-12] | 100 to 120% | 1000 to 5000 nM |  |
| CN(C)CCNc1nc(-c2cc(-c3ccon3)n(Cc3ccccc3F)n2)ncc1F [Compound I-7] | 40 to 60% | 1000 to 5000 nM |  |
| O=C(O)C(Nc1nc(-c2cc(-c3ccon3)n(Cc3ccccc3F)n2)ncc1F)C1COC1 (stereo not shown) [Compound I-102] | 60 to 80% | 1000 to 5000 nM |  |
| NC1CN(c2nc(-c3cc(-c4ccon4)n(Cc4ccccc4F)n3)ncc2F)C1 [Compound I-40, 1-(5-fluoro-2-(1-(2-fluorobenzyl)-5-(isoxazol-3-yl)-1H-pyrazol-3-yl)pyrimidin-4-yl)azetidin-3-amine] | 60 to 80% | 1000 to 5000 nM |  |
| O=C(O)[C@H]1Cc2ccccc2N1c1nc(-c2cc(-c3ccon3)n(Cc3ccccc3F)n2)ncc1F [Compound I-91] | 40 to 60% | 5000 to 10000 nM |  |
| CN(CC1(C(=O)O)CCOCC1)c1nc(-c2cc(-c3ccon3)n(Cc3ccccc3F)n2)ncc1F [Compound I-238] | 60 to 80% | 100 to 500 nM |  |
| O=C(O)C1C2CCC(C2)N1c1nc(-c2cc(-c3ccon3)n(Cc3ccccc3F)n2)ncc1F (stereo not shown) [Compound I-92] | 60 to 80% | 1000 to 5000 nM |  |
| CSCCC(Nc1nc(-c2cc(-c3ccon3)n(Cc3ccccc3F)n2)ncc1F)C(=O)O (stereo not shown) [Compound I-199] | 60 to 80% | 5000 to 10000 nM |  |
| CS(=O)(=O)CCC(Nc1nc(-c2cc(-c3ccon3)n(Cc3ccccc3F)n2)ncc1F)C(=O)O (stereo not shown) [Compound I-178] | 40 to 60% | 5000 to 10000 nM |  |
| O=C(O)C1CCCN1c1nc(-c2cc(-c3ccon3)n(Cc3ccccc3F)n2)ncc1F (stereo not shown) [Compound I-41] | 60 to 80% |  |  |
| Fc1ccccc1Cn1nc(-c2ncc(F)c(N3CCn4cnnc4C3)n2)cc1-c1ccon1 [Compound I-113] | 60 to 80% | 500 to 1000 nM |  |
| Fc1ccccc1Cn1nc(-c2ncc(F)c(NC3CNC3)n2)cc1-c1ccon1 [Compound I-38] | 60 to 80% | 5000 to 10000 nM |  |
| CN(CCCC(=O)O)c1nc(-c2cc(-c3ccon3)n(Cc3ccccc3F)n2)ncc1F [Compound I-215] | 40 to 60% | 1000 to 5000 nM |  |
| Fc1ccccc1Cn1nc(-c2ncc(F)c(N3CCC(c4nnn[nH]4)CC3)n2)cc1-c1ccon1 [Compound I-145] | 80 to 100% | 1000 to 5000 nM |  |
| O=C(O)[C@@H]1CC(F)(F)CN1c1nc(-c2cc(-c3ccon3)n(Cc3ccccc3F)n2)ncc1F [Compound I-301] | 60 to 80% | 1000 to 5000 nM |  |
| CN(CC1(C(=O)O)CCCC1)c1nc(-c2cc(-c3ccon3)n(Cc3ccccc3F)n2)ncc1F [Compound I-228] | 0 to 10% | > 10000 nM |  |

Further lines, results first:

| Emax | EC50 [1] | EC50 (top of curve fitted to 100%, read-out: HEK assay EC50 - constrained) | Compound |
| --- | --- | --- | --- |
| 100 to 120% | 500 to 1000 nM |  | CCN(CC)c1nc(-c2cc(-c3ccon3)n(Cc3ccccc3F)n2)ncc1F [Compound I-60] |
| 60 to 80% | 100 to 500 nM |  | O=C(O)C(Nc1nc(-c2cc(-c3ccon3)n(Cc3ccccc3F)n2)ncc1F)C1CCCCC1 (stereo not shown) [Compound I-233] |
| 100 to 120% | 100 to 500 nM |  | O=C(O)c1ccc(CNc2nc(-c3cc(-c4ccon4)n(Cc4ccccc4F)n3)ncc2F)cc1 [Compound I-280] |
| > 120% | 500 to 1000 nM |  | O=C(N1CCN(c2nc(-c3cc(-c4ccon4)n(Cc4ccccc4F)n3)ncc2F)C(CO)C1)C(F)(F)F (stereo not shown) [Compound I-212] |
| 80 to 100% | 100 to 500 nM |  | O=C1CC2(CCN(c3nc(-c4cc(-c5ccon5)n(Cc5ccccc5F)n4)ncc3F)CC2)CN1 [Compound I-30] |
| 40 to 60% | 100 to 500 nM |  | O=C(O)C1Cc2ccccc2CN1c1nc(-c2cc(-c3ccon3)n(Cc3ccccc3F)n2)ncc1F (stereo not shown) [Compound I-119] |
| 80 to 100% | 100 to 500 nM |  | Fc1ccccc1Cn1nc(-c2ncc(F)c(NC3CCCCC3)n2)cc1-c1ccon1 [Compound I-9] |
| 60 to 80% | 100 to 500 nM |  | CC1(CC(=O)O)CCN(c2nc(-c3cc(-c4ccon4)n(Cc4ccccc4F)n3)ncc2F)CC1 [Compound I-289] |
| 40 to 60% | 100 to 500 nM |  | Fc1ccccc1Cn1nc(-c2nc(Cl)c(F)c(N3CCOCC3)n2)cc1-c1ccon1 [Compound I-150] |
| 60 to 80% | 100 to 500 nM |  | O=C(O)[C@@H]1c2ccccc2CCN1c1nc(-c2cc(-c3ccon3)n(Cc3ccccc3F)n2)ncc1F [Compound I-120] |
| 40 to 60% | 100 to 500 nM |  | NC(=O)C1CCCCN1c1nc(-c2cc(-c3ccon3)n(Cc3ccccc3F)n2)ncc1F (stereo not shown) [Compound I-105] |
| 60 to 80% | 500 to 1000 nM |  | O=C(CNc1nc(-c2cc(-c3ccon3)n(Cc3ccccc3F)n2)ncc1F)N1CCOCC1 [Compound I-31] |
| 100 to 120% | 500 to 1000 nM |  | CC(C)[C@@H](CC(=O)O)Nc1nc(-c2cc(-c3ccon3)n(Cc3ccccc3F)n2)ncc1F [Compound I-181] |
| 60 to 80% | 100 to 500 nM |  | CC(C)(C)OC(=O)N1CC(Nc2nc(-c3cc(-c4ccon4)n(Cc4ccccc4F)n3)ncc2F)C1 [Compound I-26] |
| 60 to 80% | 1 to 100 nM |  | CC(C)(F)C(Nc1nc(-c2cc(-c3ccon3)n(Cc3ccccc3F)n2)ncc1F)C(=O)O (stereo not shown) [Compound I-226] |
| 80 to 100% | 1 to 100 nM |  | O=C(O)[C@H](Nc1nc(-c2cc(-c3ccon3)n(Cc3ccccc3F)n2)ncc1F)C1CCCCC1 [Compound I-243, (R)-2-cyclohexyl-2-((5-fluoro-2-(1-(2-fluorobenzyl)-5-(isoxazol-3-yl)-1H-pyrazol-3-yl)pyrimidin-4-yl)amino)acetic acid] |
| 60 to 80% | 100 to 500 nM |  | Fc1ccccc1Cn1nc(-c2ncc(F)c(N3CCC(F)(F)C3)n2)cc1-c1ccon1 [Compound I-63] |
| 60 to 80% | 100 to 500 nM |  | CN(CCC(=O)O)c1nc(-c2cc(-c3ccon3)n(Cc3ccccc3F)n2)ncc1F [Compound I-169] |
| 60 to 80% | 500 to 1000 nM |  | CC(C)(C)Nc1nc(-c2cc(-c3ccon3)n(Cc3ccccc3F)n2)ncc1F [Compound I-65] |
| 60 to 80% | 100 to 500 nM |  | CC(C)(CC(=O)O)Nc1nc(-c2cc(-c3ccon3)n(Cc3ccccc3F)n2)ncc1F [Compound I-277] |
| 100 to 120% | 1 to 100 nM |  | O=C(NS(=O)(=O)N1CCN(c2nc(-c3cc(-c4ccon4)n(Cc4ccccc4F)n3)ncc2F)CC1)C1CC1 [Compound I-285] |
| 60 to 80% | 100 to 500 nM |  | O=C(O)[C@@H](Cc1ccccc1)Nc1nc(-c2cc(-c3ccon3)n(Cc3ccccc3F)n2)ncc1F [Compound I-116] |
| 60 to 80% | 100 to 500 nM |  | N#CC1CCN(c2nc(-c3cc(-c4ccon4)n(Cc4ccccc4F)n3)ncc2F)CC1 [Compound I-123] |
| 40 to 60% | 100 to 500 nM |  | O=C(O)CN1CCCN1c1nc(-c2cc(-c3ccon3)n(Cc3ccccc3F)n2)ncc1F [Compound I-216] |
| 60 to 80% | 100 to 500 nM |  | O=C(O)C1(C2CCCCC2)CCN(c2nc(-c3cc(-c4ccon4)n(Cc4ccccc4F)n3)ncc2F)CC1 [Compound I-290] |
| 60 to 80% | 100 to 500 nM |  | CCC1(C(=O)O)CCN(c2nc(-c3cc(-c4ccon4)n(Cc4ccccc4F)n3)ncc2F)CC1 [Compound I-189] |
